{"source": "patent US6043276A", "about": "(Georgetown University School of Medicine, priority 1999, dated 2000)", "origin": "cited, not measured here", "key": {"HIV": {"tested_on": "HIV", "conditions": "literature; cited from earlier work"}, "[1]": {"conditions": "Lin et al. 1996; cited from earlier work"}, "xanthine oxidase": {"tested_on": "xanthine oxidase", "conditions": "Chan et al. 1995; Chang et al. 1994; cited from earlier work"}, "RT for HIV": {"tested_on": "RT for HIV", "conditions": "Kreis et al. 1990; cited from earlier work"}, "[2]": {"tested_on": "integrase protein of HIV-1", "conditions": "Fesen et al.; Burke et al.; Mazumder et al.; cited from earlier work"}}, "data": [{"compound": "O=C(/C=C/c1ccc(O)c(O)c1)O[C@H](Cc1ccc(O)c(O)c1)C(=O)O", "note": "[Rosemarinic acid]", "values": [{"measurement": "anti-HIV activity", "setting": "HIV", "result": "possesses anti-HIV activity"}]}, {"compound": "acetylsalvianolic acid", "values": [{"measurement": "antioxidant properties", "setting": "[1]", "result": "antioxidant properties"}]}, {"compound": "O=C(/C=C/c1ccc(O)c(O)c1/C=C/c1ccc(O)c(O)c1)O[C@H](Cc1ccc(O)c(O)c1)C(=O)O", "note": "[salvianolic acid A]", "values": [{"measurement": "antioxidant properties", "setting": "[1]", "result": "antioxidant properties"}]}, {"compound": "O=C(O)/C=C/c1ccc(O)c(O)c1", "note": "[Caffeic acid]", "values": [{"measurement": "xanthine oxidase inhibition", "setting": "xanthine oxidase", "result": "inhibit xanthine oxidase"}, {"measurement": "antiviral activity, RT assay for HIV", "setting": "RT for HIV", "result": "has antiviral activity"}]}, {"compound": "O=C(/C=C/c1ccc(O)c(O)c1)OCCc1ccccc1", "note": "[CAPE, Caffeic acid phenethyl esters]", "values": [{"measurement": "inhibitory activity on the integrase protein of HIV-1", "setting": "[2]", "result": "exert inhibitory activity"}]}]}
